According to US9909125B2, “Molecular targets for selective eradication of senescent cells” (Everon Biosciences, Inc., priority 2013, dated 2018):

Tested on: senescent human neonatal dermal fibroblasts
Test: Crystal violet staining of shRNA-transduced senescent fibroblasts (FIG. 4)
Format: cell-based
Conditions: lentiviral shRNA, puromycin 72 hours, crystal violet at 20 days; senescence by bleomycin 10 μg/ml 24 hr + 10 days
Method: FIG. 4. Effect of selected shRNAs on viability of proliferating and senescent human neonatal dermal fibroblasts. Senescence was induced by treatment with bleomycin (10 μg/ml) for 24 hr followed by incubation for 10 days to establish senescent phenotype. (1) The proliferating and senescent cells were transduced with lentiviruses carrying both shRNA and mCherry constructs. Transduced cells were selected with puromycin for 72 hours and the presence of shRNA construct was confirmed by microscopic detection of mCherry fluorescence (see example of mCherry fluorescence in FIG. 4, panel 1). In 8 days for proliferating and 20 days for senescent cells, the cells were stained with crystal violet dye. The images of the live/dead cells were obtain using a digital camera (panels 2-4).
To confirm universal activity of identified target genes across different senescence models 60 candidate shRNA identified in all primary screenings were transduced to a secondary models of senescence: human diploid dermal fibroblasts induced to senescence by bleomycin treatment (DNA-damage induction) or senescence was induced by replicative exhaustion (replicative senescence).

| Substance | effect on viability of senescent cells |
| --- | --- |
| FGF1: shRNA coding sequence targeting FGF1 (DNA CCTGATAACAAGTAAGGATATGTTAATATTCATAGCATATCCTTGCTTGTTATCAGG) | critical for viability of senescent cells |
| POU5F1: shRNA coding sequence targeting POU5F1 (DNA TCATTCACTAAGGAAGGAATTGTTAATATTCATAGCAATTCCTTCCTTAGTGAATGA) | critical for viability of senescent cells |
